# Source: patent US11149056B2, “C7 substituted oxysterols and methods of use thereof” (Sage Therapeutics, Inc., priority 2016, dated 2021)
# How the values were obtained:
# NMDA receptor 2B = NMDA receptor 2B (Homo sapiens (Human), UniProt Q05586+Q13224); test: Automated patch-clamp (QPatch HTX), NMDA receptor 2B subtype; format: cell-based; details: for Emax: read-out: AVG_ EMAX 2B %
# Protocol: (§1) Automated Patch-Clamp System (OPatch HTX)
# (§2) In general, cells will be passaged at a confluence of about 80% to […]. For electrophysiological measurements cells will be harvested at a confluence of about 80% to 90% from sterile culture flasks containing culture complete medium. Cells will be transferred as suspension in PBS to the QPatch 16X or QPatch HTX system to; the centrifuge/washer directly. Standard Laboratory Conditions; Cells will be incubated at 37° C. in a humidified atmosphere with 5% CO2 (rel. humidity about 95%). Culture media: The cells will be continuously maintained in and passaged in sterile culture flasks containing a 1:1 mixture of Dulbecco's modified eagle medium and nutrient mixture F-12 (D-MEM/F-12 1×, liquid, with L-Glutamine) supplemented with 10% fetal bovine serum, 1% Penicillin/Streptomycin solution, and 50 μM AP-5 blocker. Antibiotics: The complete medium as indicated above is supplemented with 100 μg/mL hygromycin, 15 μg/mL blasticidin and 1 μg/mL puromycin. Induction of Expression-. 2.5 μg/mL tetracycline is added 24 h before start of experiments. Dose Formulation Dose levels are in terms of test compounds, as supplied. Vehicle will be added to achieve a stock concentration of 10 mM (storage at −10° C. to −30° C.). A further stock solutions of 1.0 mM will be prepared in DMSO. Details of stock solution usage (thawing, dose formulations) will be documented in the raw data. The time period of stock solution usage will be detailed in the report. Test Compound Concentrations Dose levels, are in terms of test compounds, as supplied. Vehicle will be added to achieve a stock concentration of 10 mM (storage at −10° C. to −30° C.). A further stock solutions of 1.0 mM will be prepared in DMSO. Details of stock solution usage (thawing, dose formulations) will be documented in the raw data. The time period of stock solution usage will be detailed in the report. One test concentration of 1.0 μM will be tested. All test solutions will be prepared by diluting the stock solutions with either Mg-free bath solution only or Mg-free bath solution containing NMDA (300 μM) and glycine (8.0 μM) shortly prior to the electrophysiological experiments and kept at room temperature (19° C. to 30° C.) when in use. 0.1% DMSO will be used as vehicle. Frequency of preparation. For each test concentration, fresh solutions of test compounds will be prepared every day. Stability of dose formulation: All preparation times will be documented in the raw data. Any observations regarding instability of test compounds will be mentioned in the raw data. Storage of dose formulation: On the day of experimentation dose formulations will be maintained at room temperature (19° C. to 30° C.) when in use, Bath Solutions For preparing the experiments and for formation of the giga-ohm-seal, the following standard bath solution will be used: Sodium Chloride: 137 mM; Potassium Chloride: 4 mM; Calcium Chloride: 1.8 mM; Magnesium Chloride: 1 mM; HEPES: 10 mM; D-Glucose: 10 mM; Cremophor: 0.02%; pH (NaOH): 7.4
# The 1× intracellular solution will be thawed every day out of a frozen 1× intracellular solution, which has been prepared prior to the experimental start of the present study, aliquoted and stored at −10° C. to −30° C. When in use, the 1× intracellular solution will kept at room temperature (19° C. to 30° C.). Remaining 1× intracellular solution will be stored in the fridge (1° C. to 9° C.). The 1× intracellular solution will include the components outlined below: Potassium Chloride: 130 mM; Magnesium Chloride: 1 mM; Mg-ATP: 5 mM; HEPES: 10 mM; EGTA: 5 mM; pH (KOH): 7.2 Cell Treatment For this study, cells will continuously be perfused with NMDA/Glycine, Test Compound or Test Compound/NMDA/Glycin. In every case, at least 30-second prewash steps with a test compound will be performed in between applications. For details see Table A below. Each experiment type will be analyzed in at least n=3 isolated cells. […]
# [1] = target: glutamate-activated channels of the GRIN1/2A subtype (Homo sapiens (Human), UniProt Q05586+Q12879); test: Automated patch-clamp (QPatch HTX), NMDA receptor GRIN1/2A in HEK 293 cells; format: cell-based; details: HEK 293 cells stably transfected with GRIN1/2A; 300 μM NMDA + 8 μM glycine; holding potential −80 mV; read-out: AVG_ EC50 2A
# Chain of glutamate-activated channels of the GRIN1/2A subtype (Q12879 23-1464, other chains not shown): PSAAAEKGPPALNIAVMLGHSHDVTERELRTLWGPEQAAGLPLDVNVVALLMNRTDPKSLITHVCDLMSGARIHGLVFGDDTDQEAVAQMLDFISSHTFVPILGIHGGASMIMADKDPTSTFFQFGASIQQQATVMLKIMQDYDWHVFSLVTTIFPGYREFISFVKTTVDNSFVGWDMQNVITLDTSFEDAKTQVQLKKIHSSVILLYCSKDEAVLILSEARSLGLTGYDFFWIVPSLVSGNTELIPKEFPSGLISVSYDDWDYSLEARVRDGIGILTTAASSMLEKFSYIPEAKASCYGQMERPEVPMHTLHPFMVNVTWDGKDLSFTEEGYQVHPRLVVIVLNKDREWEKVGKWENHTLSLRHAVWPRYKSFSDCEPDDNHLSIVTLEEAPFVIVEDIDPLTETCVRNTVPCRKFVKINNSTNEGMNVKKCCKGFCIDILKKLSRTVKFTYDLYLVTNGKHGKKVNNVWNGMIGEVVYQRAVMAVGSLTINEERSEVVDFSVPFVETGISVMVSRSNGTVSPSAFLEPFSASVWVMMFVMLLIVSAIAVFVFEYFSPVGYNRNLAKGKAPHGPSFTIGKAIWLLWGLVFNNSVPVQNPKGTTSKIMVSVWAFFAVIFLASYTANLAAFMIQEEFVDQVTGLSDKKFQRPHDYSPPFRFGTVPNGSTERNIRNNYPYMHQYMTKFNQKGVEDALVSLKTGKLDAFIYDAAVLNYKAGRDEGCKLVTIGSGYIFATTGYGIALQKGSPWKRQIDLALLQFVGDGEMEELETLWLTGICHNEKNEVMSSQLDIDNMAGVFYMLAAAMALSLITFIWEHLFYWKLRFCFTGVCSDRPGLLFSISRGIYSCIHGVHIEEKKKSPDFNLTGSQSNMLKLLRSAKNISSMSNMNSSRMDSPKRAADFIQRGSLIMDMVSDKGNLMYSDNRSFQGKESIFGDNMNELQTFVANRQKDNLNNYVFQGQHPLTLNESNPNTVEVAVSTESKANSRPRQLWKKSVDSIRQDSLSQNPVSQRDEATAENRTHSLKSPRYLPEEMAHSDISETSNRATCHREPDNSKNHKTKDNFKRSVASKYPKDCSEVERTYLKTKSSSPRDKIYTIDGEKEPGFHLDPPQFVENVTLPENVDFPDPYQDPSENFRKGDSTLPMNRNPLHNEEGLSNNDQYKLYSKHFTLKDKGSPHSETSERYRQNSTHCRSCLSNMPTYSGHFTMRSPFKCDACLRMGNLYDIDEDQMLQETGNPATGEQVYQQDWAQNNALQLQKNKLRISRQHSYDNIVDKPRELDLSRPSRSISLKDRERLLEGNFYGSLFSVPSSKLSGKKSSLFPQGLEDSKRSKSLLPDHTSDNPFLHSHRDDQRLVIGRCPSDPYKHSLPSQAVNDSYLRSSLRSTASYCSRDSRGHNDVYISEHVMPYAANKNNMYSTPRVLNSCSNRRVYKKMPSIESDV
# Protocol: as §1
# In this study, HEK 293 cells stably transfected with glutamate-activated channels of the GRIN1/2A subtype will be used together with submaximal NMDA concentrations (300 μM NMDA, co-application with 8 μM Glycine) to investigate the negative allosteric modulation of the test compounds.
# as §2
# The 1× bath solution will be prepared by diluting 10× bath solution without Glucose and 100× Glucose solution with water at least every 7 days. Both stock solutions have been prepared prior to the experimental start of the present study and stored at 1° C. to 9° C. (10× bath solution) or −10° C. to −30° (100× Glucose solution). The batch number(s) of the bath solution(s) used in the experiments will be documented in the raw data. When muse, the 1× bath solution will be kept at room temperature (19° C. to 30° C.). When not in use, the 1× bath solution will be stored at 1° C. to 9° C.
# After the giga-seal was formed the following Mg-free bath solution will be used: […]
# Chain of NMDA receptor 2B (Q13224 27-1484, other chains not shown): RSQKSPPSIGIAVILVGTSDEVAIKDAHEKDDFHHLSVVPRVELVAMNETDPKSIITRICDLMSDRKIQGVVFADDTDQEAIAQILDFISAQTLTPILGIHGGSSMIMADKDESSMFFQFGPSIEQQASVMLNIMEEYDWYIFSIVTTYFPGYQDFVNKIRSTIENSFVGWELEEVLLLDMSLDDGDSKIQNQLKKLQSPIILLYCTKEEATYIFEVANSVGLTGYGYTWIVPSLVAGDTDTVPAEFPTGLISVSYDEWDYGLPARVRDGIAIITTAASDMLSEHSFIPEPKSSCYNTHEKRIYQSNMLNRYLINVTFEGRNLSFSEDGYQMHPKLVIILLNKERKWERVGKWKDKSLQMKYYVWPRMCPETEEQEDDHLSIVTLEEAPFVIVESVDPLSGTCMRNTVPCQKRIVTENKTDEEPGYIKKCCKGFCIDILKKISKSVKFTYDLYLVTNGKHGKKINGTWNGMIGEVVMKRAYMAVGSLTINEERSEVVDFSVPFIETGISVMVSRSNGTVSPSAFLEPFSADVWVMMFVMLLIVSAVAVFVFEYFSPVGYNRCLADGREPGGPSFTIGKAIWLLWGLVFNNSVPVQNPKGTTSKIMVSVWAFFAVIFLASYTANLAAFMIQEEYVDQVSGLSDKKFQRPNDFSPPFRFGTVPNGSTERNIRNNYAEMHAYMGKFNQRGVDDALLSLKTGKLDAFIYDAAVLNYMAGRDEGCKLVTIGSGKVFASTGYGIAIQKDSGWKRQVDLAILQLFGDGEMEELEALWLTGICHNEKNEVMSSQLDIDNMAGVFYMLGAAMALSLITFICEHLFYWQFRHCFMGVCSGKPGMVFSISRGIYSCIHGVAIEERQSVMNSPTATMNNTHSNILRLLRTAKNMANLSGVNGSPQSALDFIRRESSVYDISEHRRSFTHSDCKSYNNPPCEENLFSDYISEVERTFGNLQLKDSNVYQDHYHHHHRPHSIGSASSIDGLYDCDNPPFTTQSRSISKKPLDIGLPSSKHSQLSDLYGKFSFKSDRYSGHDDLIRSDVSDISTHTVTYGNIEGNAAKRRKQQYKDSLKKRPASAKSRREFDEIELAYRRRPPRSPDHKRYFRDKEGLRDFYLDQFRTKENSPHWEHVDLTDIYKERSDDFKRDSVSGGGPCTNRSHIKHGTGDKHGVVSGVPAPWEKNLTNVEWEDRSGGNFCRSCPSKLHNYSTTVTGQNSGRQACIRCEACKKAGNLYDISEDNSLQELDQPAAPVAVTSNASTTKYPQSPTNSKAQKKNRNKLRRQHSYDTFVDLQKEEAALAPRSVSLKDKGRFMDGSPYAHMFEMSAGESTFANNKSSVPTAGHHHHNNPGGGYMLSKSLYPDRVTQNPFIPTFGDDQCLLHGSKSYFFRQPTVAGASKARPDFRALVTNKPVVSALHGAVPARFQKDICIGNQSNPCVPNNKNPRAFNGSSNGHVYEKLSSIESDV
smiles,measurement,setting,value
CC[C@]1(O)CC[C@@]2(C)C(=C[C@](C)(O)[C@H]3[C@@H]4CC[C@H]([C@H](C)CCC(C)(C)O)[C@@]4(C)CC[C@@H]32)C1 [Compound U6437],EC50,NMDA receptor 2B,741 nM
same,Emax,NMDA receptor 2B,213%
same,EC50,[1],1620 nM
CC[C@]1(O)CC[C@@]2(C)[C@@H](CC(=O)[C@@H]3[C@@H]2CC[C@]2(C)[C@@H]([C@H](C)CCC(C)(C)O)CC[C@@H]32)C1 [Compound U6410],EC50,NMDA receptor 2B,> 10000 nM
same,Emax,NMDA receptor 2B,44%
same,EC50,[1],> 10000 nM
CC[C@]1(O)CC[C@@]2(C)C(=CC(=O)[C@H]3C4CC[C@H]([C@H](C)CCC(C)(C)O)[C@@]4(C)CC[C@@H]32)C1 (some centres unmarked) [Compound U6461],EC50,NMDA receptor 2B,> 10000 nM
same,Emax,NMDA receptor 2B,53%
same,EC50,[1],> 10000 nM
CC[C@]1(O)CC[C@@]2(C)C(=C[C@H](O)[C@H]3[C@@H]4CC[C@H]([C@H](C)CCC(C)(C)O)[C@@]4(C)CC[C@@H]32)C1 [Compound U6429],EC50,NMDA receptor 2B,667 nM
same,Emax,NMDA receptor 2B,109%
C[C@@H]1C=C2C[C@@](C)(O)CC[C@]2(C)[C@H]2CC[C@]3(C)[C@@H]([C@H](C)CC4(O)CCC(C)(C)CC4)CC[C@H]3[C@H]12 [Compound U6477],EC50,NMDA receptor 2B,698 nM
same,Emax,NMDA receptor 2B,86%
same,EC50,[1],747 nM
CC[C@]1(O)CC[C@@]2(C)C(=C[C@@](C)(O)[C@H]3[C@@H]4CC[C@H]([C@H](C)CCC(C)(C)O)[C@@]4(C)CC[C@@H]32)C1 [Compound U6438],EC50,NMDA receptor 2B,> 10000 nM
same,Emax,NMDA receptor 2B,15%
same,EC50,[1],> 10000 nM
CC[C@]1(O)CC[C@@]2(C)C(=C[C@@H](O)[C@H]3[C@@H]4CC[C@H]([C@H](C)CCC(C)(C)O)[C@@]4(C)CC[C@@H]32)C1 [Compound U6450],EC50,NMDA receptor 2B,66 nM
same,Emax,NMDA receptor 2B,111%
CC[C@]1(O)CC[C@@]2(C)C(=C[C@H](C)[C@H]3[C@@H]4CC[C@H]([C@H](C)CCC(C)(C)O)[C@@]4(C)CC[C@@H]32)C1 [Compound U6409],EC50,NMDA receptor 2B,> 10000 nM
same,Emax,NMDA receptor 2B,71%
same,EC50,[1],> 10000 nM
C[C@H](CC[C@](C)(O)C(F)(F)F)[C@H]1CC[C@H]2[C@@H]3[C@@H](C)C=C4C[C@@](C)(O)CC[C@]4(C)[C@H]3CC[C@]12C [Compound U6473],EC50,NMDA receptor 2B,> 10000 nM
same,Emax,NMDA receptor 2B,47%
CC[C@]1(O)CC[C@@]2(C)[C@@H](C[C@H](O)[C@@H]3[C@@H]2CC[C@]2(C)[C@@H]([C@H](C)CCC(C)(C)O)CC[C@@H]32)C1 [Compound U6479],EC50,NMDA receptor 2B,1420 nM
same,Emax,NMDA receptor 2B,92%
same,EC50,[1],> 10000 nM
CC[C@]1(O)CC[C@@]2(C)C(=C[C@@H](C)[C@H]3[C@@H]4CC[C@H]([C@H](C)CCC(C)(C)O)[C@@]4(C)CC[C@@H]32)C1 [Compound U6408],EC50,NMDA receptor 2B,132 nM
same,Emax,NMDA receptor 2B,447%
same,EC50,[1],230 nM
C[C@H](CC1(O)CCC(C)(C)CC1)[C@H]1CC[C@H]2[C@@H]3[C@@H](C)C=C4C[C@@](C)(O)CC[C@]4(C)[C@H]3CC[C@]12C [Compound U6478],EC50,NMDA receptor 2B,160 nM
same,Emax,NMDA receptor 2B,127%
same,EC50,[1],191 nM
C[C@@H]1C=C2C[C@@](C)(O)CC[C@]2(C)[C@H]2CC[C@]3(C)[C@@H]([C@H](C)CC[C@](C)(O)C(F)(F)F)CC[C@H]3[C@H]12 [Compound U6472],EC50,NMDA receptor 2B,22 nM
same,Emax,NMDA receptor 2B,231%
